Experimental data taken from PubChem BioAssay (NCI).
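In this assay, cells in 96-well plates receive the compound at five concentrations for 48 hours. Endpoints are linearly interpolated between the surrounding concentrations. At the GI50, growth is halved. TGI is the concentration that stops growth completely.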

Tests used:
Assay in all cases: NCI tumour cell line growth inhibition, 48 h
HCC-2998 colon = system: HCC-2998 colon
HT29 colon = system: HT29 colon
IGROV1 ovarian = system: IGROV1 ovarian
NCI-H23 lung = system: NCI-H23 lung
HCT-116 colon = system: HCT-116 colon
A549 NSCLC = system: A549 NSCLC
OVCAR-5 ovarian = system: OVCAR-5 ovarian
SNB-19 CNS = system: SNB-19 CNS
UACC-257 melanoma = system: UACC-257 melanoma
RXF 393 renal = system: RXF 393 renal
A498 renal = system: A498 renal
LOX IMVI melanoma = system: LOX IMVI melanoma
HOP-62 NSCLC = system: HOP-62 NSCLC
HOP-92 NSCLC = system: HOP-92 NSCLC
COLO 205 colon = system: COLO 205 colon
SK-MEL-5 melanoma = system: SK-MEL-5 melanoma
ACHN renal = system: ACHN renal
SK-OV-3 ovarian = system: SK-OV-3 ovarian
K-562 leukemia = system: K-562 leukemia
M14 melanoma = system: M14 melanoma
OVCAR-8 ovarian = system: OVCAR-8 ovarian
NCI-H226 lung = system: NCI-H226 lung
MDA-MB-435 = system: MDA-MB-435
BT-549 breast = system: BT-549 breast
SW-620 colon = system: SW-620 colon
PC-3 prostate = system: PC-3 prostate
OVCAR-4 ovarian = system: OVCAR-4 ovarian
MOLT-4 leukemia = system: MOLT-4 leukemia
UO-31 renal = system: UO-31 renal
RPMI-8226 leukemia = system: RPMI-8226 leukemia
HCT-15 colon = system: HCT-15 colon
SK-MEL-28 melanoma = system: SK-MEL-28 melanoma
SN12C renal = system: SN12C renal
CCRF-CEM leukemia = system: CCRF-CEM leukemia
U251 CNS = system: U251 CNS
OVCAR-3 ovarian = system: OVCAR-3 ovarian
KM12 colon = system: KM12 colon
UACC-62 melanoma = system: UACC-62 melanoma
HS 578T breast = system: HS 578T breast
MCF7 breast = system: MCF7 breast
CAKI-1 renal = system: CAKI-1 renal
NCI-H460 lung = system: NCI-H460 lung
MALME-3M melanoma = system: MALME-3M melanoma
DU-145 prostate = system: DU-145 prostate
T-47D breast = system: T-47D breast
SF-295 CNS = system: SF-295 CNS
TK-10 renal = system: TK-10 renal
SF-539 CNS = system: SF-539 CNS
MDA-MB-231 breast = system: MDA-MB-231 breast
SR leukemia = system: SR leukemia
EKVX NSCLC = system: EKVX NSCLC
SK-MEL-2 melanoma = system: SK-MEL-2 melanoma
NCI/ADR-RES ovarian = system: NCI/ADR-RES ovarian
SF-268 CNS = system: SF-268 CNS
HL-60(TB) leukemia = system: HL-60(TB) leukemia
SNB-75 CNS = system: SNB-75 CNS
786-0 renal = system: 786-0 renal
NCI-H522 lung = system: NCI-H522 lung

## O=C(Nc1ccccc1C(=O)N/N=C(\c1ccccc1)c1ccccn1)c1ccccc1
HCC-2998 colon
  GI50: 537 nM
  TGI: > 100000 nM
HT29 colon
  GI50: 797 nM
  TGI: > 100000 nM
IGROV1 ovarian
  GI50: 502 nM
  TGI: > 100000 nM
NCI-H23 lung
  GI50: 1870 nM
  TGI: > 100000 nM
HCT-116 colon
  GI50: 405 nM
  TGI: > 100000 nM
A549 NSCLC
  GI50: 987 nM
  TGI: > 100000 nM
OVCAR-5 ovarian
  GI50: 933 nM
  TGI: > 100000 nM
SNB-19 CNS
  GI50: 912 nM
  TGI: > 100000 nM
UACC-257 melanoma
  GI50: 2580 nM
  TGI: > 100000 nM
RXF 393 renal
  GI50: 1930 nM
  TGI: > 82400 nM
A498 renal
  GI50: 2950 nM
  TGI: > 100000 nM
LOX IMVI melanoma
  GI50: 505 nM
  TGI: > 100000 nM
HOP-62 NSCLC
  GI50: 396 nM
  TGI: > 100000 nM
HOP-92 NSCLC
  GI50: 552 nM
  TGI: 47800 nM
COLO 205 colon
  GI50: 427 nM
  TGI: > 100000 nM
SK-MEL-5 melanoma
  GI50: 560 nM
  TGI: 2460 nM
ACHN renal
  GI50: 418 nM
  TGI: > 100000 nM
SK-OV-3 ovarian
  GI50: 504 nM
  TGI: > 100000 nM
K-562 leukemia
  GI50: 1450 nM
  TGI: > 100000 nM
M14 melanoma
  GI50: 457 nM
  TGI: 4630 nM
OVCAR-8 ovarian
  GI50: 583 nM
  TGI: > 100000 nM
NCI-H226 lung
  GI50: 828 nM
  TGI: > 100000 nM
MDA-MB-435
  GI50: 1390 nM
  TGI: > 100000 nM
BT-549 breast
  GI50: 2180 nM
  TGI: > 100000 nM
SW-620 colon
  GI50: 723 nM
  TGI: > 100000 nM
PC-3 prostate
  GI50: 711 nM
  TGI: > 100000 nM
OVCAR-4 ovarian
  GI50: 330 nM
  TGI: > 100000 nM
MOLT-4 leukemia
  GI50: 460 nM
  TGI: > 100000 nM
UO-31 renal
  GI50: 428 nM
  TGI: > 25500 nM
RPMI-8226 leukemia
  GI50: 823 nM
  TGI: > 100000 nM
HCT-15 colon
  GI50: 112 nM
  TGI: > 100000 nM
SK-MEL-28 melanoma
  GI50: 1230 nM
  TGI: > 100000 nM
SN12C renal
  GI50: 623 nM
  TGI: > 100000 nM
CCRF-CEM leukemia
  GI50: 351 nM
  TGI: > 100000 nM
U251 CNS
  GI50: 657 nM
  TGI: > 100000 nM
OVCAR-3 ovarian
  GI50: 346 nM
  TGI: > 100000 nM
KM12 colon
  GI50: 581 nM
  TGI: > 100000 nM
UACC-62 melanoma
  GI50: 496 nM
HS 578T breast
  GI50: > 100000 nM
  TGI: > 100000 nM
MCF7 breast
  GI50: 556 nM
  TGI: > 100000 nM
CAKI-1 renal
  GI50: 397 nM
  TGI: > 100000 nM
NCI-H460 lung
  GI50: 402 nM
  TGI: > 100000 nM
MALME-3M melanoma
  GI50: 1750 nM
  TGI: > 100000 nM
DU-145 prostate
  GI50: 999 nM
  TGI: > 100000 nM
T-47D breast
  GI50: 666 nM
  TGI: > 100000 nM
SF-295 CNS
  GI50: 427 nM
  TGI: > 67000 nM
TK-10 renal
  GI50: 584 nM
  TGI: > 100000 nM
SF-539 CNS
  GI50: 621 nM
  TGI: > 100000 nM
MDA-MB-231 breast
  GI50: 478 nM
  TGI: > 100000 nM
SR leukemia
  GI50: 507 nM
  TGI: > 100000 nM
EKVX NSCLC
  GI50: 339 nM
  TGI: > 100000 nM
SK-MEL-2 melanoma
  GI50: 4850 nM
  TGI: > 100000 nM
NCI/ADR-RES ovarian
  GI50: 276 nM
  TGI: > 100000 nM
SF-268 CNS
  GI50: 609 nM
  TGI: > 100000 nM
HL-60(TB) leukemia
  GI50: 606 nM
  TGI: > 22000 nM
SNB-75 CNS
  GI50: 1070 nM
  TGI: > 100000 nM
786-0 renal
  GI50: 399 nM
  TGI: > 100000 nM
NCI-H522 lung
  GI50: 1270 nM
  TGI: > 100000 nM
